Test results from patent US6355799B1, “Substituted benzene compounds, process for their preparation, and herbicidal and defoliant compositions containing them” (ISK Americas Incorporated, priority 1997, dated 2002).

Assays:
Type in all cases: in vivo
[1] = system: field corn (Zea mays L., var. Dekalb 535, CORN); test: Post-emerge test, crop safety; conditions: post-emerge, 14 days after application, rating scale 0-100
Outline: (§1)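 Applied at 15–1000 g ai/ha from acetone in 187 l/ha spray volume. Post-emergence applications included 0.25% v/v non-ionic surfactant and reached plants sown 8–21 days before. Pre-emergence applications were incorporated by surface watering. Efficacy or crop damage was rated on a 0–100 scale after 14 days.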

[2] = system: upland rice (Oryza sp., var. Tebonnet, RICE); test: Post-emerge test, crop safety; conditions: post-emerge, 14 days after application, rating scale 0-100
Outline: as §1

[3] = system: green foxtail (Setaria viridis, SETVI); test: Post-emerge test, greenhouse herbicide activity screening; conditions: post-emerge, 14 days after application, rating scale 0-100
Outline: (§2)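 Compounds in acetone were track-sprayed at 187 l/ha, 15–1000 g ai/ha, onto sandy loam pots. Pre-emerge seeds were sown one day before spraying, with surface watering afterwards. Post-emerge plants were at the 2–3 leaf stage and sprayed with 0.25% v/v non-ionic surfactant. Injury was rated 0–100 at 14 days.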

[4] = system: large crabgrass (Digitaria sanguinalis, DIGSA); test: as above; conditions: post-emerge, 14 days after application, rating scale 0-100
Outline: as §2

[5] = system: velvetleaf (Abutilon theophrasti, ABUTH); test: as above; conditions: post-emerge, 14 days after application, rating scale 0-100
Outline: as §2

[6] = system: sicklepod (Cassia obtusifolia, CASOB); test: as above; conditions: post-emerge, 14 days after application, rating scale 0-100
Outline: as §2

[7] = system: redroot pigweed (Amaranthus retroflexus, AMARE); test: as above; conditions: post-emerge, 14 days after application
Outline: as §2

[8] = system: barnyardgrass (Echinochloa crus-galli, ECHCG); test: as above; conditions: post-emerge, 14 days after application, rating scale 0-100
Outline: as §2

[9] = system: ivyleaf morningglory (Ipomoea hederacea, IPOHE); test: as above; conditions: post-emerge, 14 days after application, rating scale 0-100
Outline: as §2

[10] = system: lambsquarters (Chenopodium album, CHEAL); test: as above; conditions: post-emerge, 14 days after application, rating scale 0-100
Outline: as §2

[11] = system: green foxtail (Setaria viridis, SETVI); test: Pre-emerge test, greenhouse herbicide activity screening; conditions: pre-emerge, 14 days after application, rating scale 0-100
Outline: as §1

[12] = system: large crabgrass (Digitaria sanguinalis, DIGSA); test: as above; conditions: pre-emerge, 14 days after application, rating scale 0-100
Outline: as §1

[13] = system: velvetleaf (Abutilon theophrasti, ABUTH); test: as above; conditions: pre-emerge, 14 days after application, rating scale 0-100
Outline: as §1

[14] = system: sicklepod (Cassia obtusifolia, CASOB); test: as above; conditions: pre-emerge, 14 days after application, rating scale 0-100
Outline: as §1

[15] = system: barnyardgrass (Echinochloa crus-galli, ECHCG); test: as above; conditions: pre-emerge, 14 days after application, rating scale 0-100
Outline: as §1

[16] = system: johnsongrass (Sorghum halepense, SORHA); test: as above; conditions: pre-emerge, 14 days after application, rating scale 0-100
Outline: as §1

[17] = system: ivyleaf morningglory (Ipomoea hederacea, IPOHE); test: as above; conditions: pre-emerge, 14 days after application, rating scale 0-100
Outline: as §1

[18] = system: lambsquarters (Chenopodium album, CHEAL); test: as above; conditions: pre-emerge, 14 days after application, rating scale 0-100
Outline: as §1

[19] = system: field corn (Zea mays L., var. Dekalb 535, CORN); test: Pre-emerge test, crop safety; conditions: pre-emerge, 14 days after application, rating scale 0-100
Outline: as §2

[20] = system: upland rice (Oryza sp., var. Tebonnet, RICE); test: Pre-emerge test, crop safety; conditions: pre-emerge, 14 days after application, rating scale 0-100
Outline: as §2

[21] = system: redroot pigweed (Amaranthus retroflexus, AMARE); test: Pre-emerge test, greenhouse herbicide activity screening; conditions: pre-emerge, 14 days after application, rating scale 0-100
Outline: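 Rating: 0–100 visual injury, 14 DAA. Application: acetone, 187 l/ha, 15–1000 g ai/ha, flat-fan track sprayer with nozzle 40–45 cm above soil or canopy. Post-emerge runs used 0.25% v/v surfactant on 2–3 leaf plants.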

In the case of COc1c(Cl)cc(F)c(-n2c(=O)cc(C(F)(F)F)n(C)c2=O)c1NNC(=O)Oc1ccccc1 [15-7], the “Post-emerge Herbicidal Activity CORN (crop damage rating)” value ([1]; 63 g ai/ha) is reported as 60, the “Post-emerge Herbicidal Activity CORN (crop damage rating)” value ([1]; 250 g ai/ha) is reported as 80 and the “Post-emerge Herbicidal Activity RICE (crop damage rating)” value ([2]; 63 g ai/ha) is reported as 50. For the same compound, the “Post-emerge Herbicidal Activity RICE (crop damage rating)” value ([2]; 250 g ai/ha) was 90, the “Post-emerge Herbicidal Activity SETVI (phytotoxicity rating)” value ([3]; 63 g ai/ha) was 30 and the “Post-emerge Herbicidal Activity SETVI (phytotoxicity rating)” value ([3]; 250 g ai/ha) was 90. The “Post-emerge Herbicidal Activity DIGSA (phytotoxicity rating)” value ([4]; 63 g ai/ha) was 20, the “Post-emerge Herbicidal Activity DIGSA (phytotoxicity rating)” value ([4]; 250 g ai/ha) was 75 and the “Post-emerge Herbicidal Activity ABUTH (phytotoxicity rating)” value ([5]; 63 g ai/ha) was 100. The “Post-emerge Herbicidal Activity ABUTH (phytotoxicity rating)” value ([5]; 250 g ai/ha) was 100, the “Post-emerge Herbicidal Activity CASOB (phytotoxicity rating)” value ([6]; 63 g ai/ha) was 60 and the “Post-emerge Herbicidal Activity CASOB (phytotoxicity rating)” value ([6]; 250 g ai/ha) was 100. The “Post-emerge Herbicidal Activity AMARE (phytotoxicity rating)” value ([7]; 63 g ai/ha, rating scale 0-100 (0 no damage, 100 complete death)) was 100, the “Post-emerge Herbicidal Activity AMARE (phytotoxicity rating)” value ([7]; 250 g ai/ha, rating scale 0-100) was 100 and the “Post-emerge Herbicidal Activity ECHCG (phytotoxicity rating)” value ([8]; 63 g ai/ha) was 40. The “Post-emerge Herbicidal Activity ECHCG (phytotoxicity rating)” value ([8]; 250 g ai/ha) was 95, the “Post-emerge Herbicidal Activity IPOHE (phytotoxicity rating)” value ([9]; 63 g ai/ha) was 100 and the “Post-emerge Herbicidal Activity IPOHE (phytotoxicity rating)” value ([9]; 250 g ai/ha) was 100. The “Post-emerge Herbicidal Activity CHEAL (phytotoxicity rating)” value ([10]; 63 g ai/ha) was 100, the “Post-emerge Herbicidal Activity CHEAL (phytotoxicity rating)” value ([10]; 250 g ai/ha) was 100 and the “phytotoxicity rating SETVI” value ([11]; 63 g ai/ha) was 100. For the same compound, the “phytotoxicity rating SETVI” value ([11]; 250 g ai/ha) was 100, the “phytotoxicity rating DIGSA” value ([12]; 63 g ai/ha) was 90 and the “phytotoxicity rating DIGSA” value ([12]; 250 g ai/ha) was 100. The “phytotoxicity rating ABUTH” value ([13]; 63 g ai/ha) was 100, the “phytotoxicity rating ABUTH” value ([13]; 250 g ai/ha) was 100 and the “phytotoxicity rating CASOB” value ([14]; 63 g ai/ha) was 100. For the same compound, the “phytotoxicity rating CASOB” value ([14]; 250 g ai/ha) was 100, the “phytotoxicity rating ECHCG” value ([15]; 63 g ai/ha) was 80 and the “phytotoxicity rating ECHCG” value ([15]; 250 g ai/ha) was 100. For the same compound, the “phytotoxicity rating SORHA” value ([16]; 63 g ai/ha) was 95, the “phytotoxicity rating SORHA” value ([16]; 250 g ai/ha) was 100 and the “phytotoxicity rating IPOHE” value ([17]; 63 g ai/ha) was 95. The “phytotoxicity rating IPOHE” value ([17]; 250 g ai/ha) was 100, the “phytotoxicity rating CHEAL” value ([18]; 63 g ai/ha) was 100 and the “phytotoxicity rating CHEAL” value ([18]; 250 g ai/ha) was 100. The “phytotoxicity rating CORN” value ([19]; 63 g ai/ha) was 85, the “phytotoxicity rating CORN” value ([19]; 250 g ai/ha) was 100 and the “phytotoxicity rating RICE” value ([20]; 63 g ai/ha) was 90. The “phytotoxicity rating RICE” value ([20]; 250 g ai/ha) was 100, the “phytotoxicity rating AMARE” value ([21]; 63 g ai/ha) was 100 and the “phytotoxicity rating AMARE” value ([21]; 250 g ai/ha) was 100.
